Results taken from patent US20250250265A1, “BENZOTHIAZOLE-PHENYLSULFONYL-PIPERIDINE ANALOGS AS ACTIVATORS OF NACYLPHOSPHATIDYLETHANOLAMINE HYDROLYZING PHOSPHOLIPASE D” (priority 2022, published 2025).
“Also recorded” adds a separate entry of the source. Read-outs that look alike come from different tables or passages of the source.

What was measured:
[1] = target: T1, recombinant mouse NAPE-PLD (Mus musculus, UniProt Q8BH82); experiment: In vitro fluorescence NAPE-PLD activity assay (HTS/CRC) with recombinant mouse NAPE-PLD and PED-A1; assay type: biochemical; details: for bAC175 / AC50 / Max % bA (%): Table 1; for bAC175: compound concentration to induce 175% basal activity; for AC50: concentration for 50% maximum activation from basal activity (no activator); for Max % bA (%): maximum induced activity compared to basal (100%) activity; for Emax (95% Cl): Table 4, maximal efficacy as fold increase in NAPE-PLD activity versus vehicle only
T1 construct: hexahistidine (His6) (C); made in house; host or cells: E. coli
T1 sequence (Q8BH82 1-396): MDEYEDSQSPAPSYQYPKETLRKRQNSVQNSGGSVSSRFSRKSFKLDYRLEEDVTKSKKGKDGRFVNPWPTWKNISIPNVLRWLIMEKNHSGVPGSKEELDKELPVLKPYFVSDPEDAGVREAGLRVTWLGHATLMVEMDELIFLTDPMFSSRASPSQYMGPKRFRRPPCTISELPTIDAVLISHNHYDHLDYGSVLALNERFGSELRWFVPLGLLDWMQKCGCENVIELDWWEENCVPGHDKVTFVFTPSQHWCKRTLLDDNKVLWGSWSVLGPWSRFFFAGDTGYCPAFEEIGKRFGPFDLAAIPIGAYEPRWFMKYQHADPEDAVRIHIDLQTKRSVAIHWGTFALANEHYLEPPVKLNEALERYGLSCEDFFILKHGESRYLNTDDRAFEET

[2] = target: T2, NAPE-PLD activity of RAW264.7 macrophages (Mus musculus, UniProt Q8BH82); experiment: Cell-based NAPE-PLD activity in RAW264.7 macrophages (PED-A1 with orlistat); details: for 10 μM Mϕ % NAPE-PLD activity: Table 2, 10 μM compound, vehicle = 100%; for In-cell NAPE-PLD activity in RAW 264.7 (10 μM) with PED-A1 or flame-NAPE as substrate: Table 3
T2 construct: endogenous in cells; host or cells: RAW264.7
T2 sequence (Q8BH82 1-396): T1 sequence (Q8BH82 1-396)
Method: NAPE-PLD activity was measured in cells as previously described, except that FluoroBrite DMEM (Gibco A1896701) was used as media. See Zarrow et al., J. Lipid Res. 63(1): 100156 (2022). For RAW264.7 assays, PED-A1 (3.6 μM final) was used as the substrate with 10 μM orlistat added to inhibit PLA1 activity, while for HepG2 cells, flame-NAPE was used (with no orlistat added).

[3] = target: T3, soluble epoxide hydrolase (sEH) (Homo sapiens, UniProt P34913); experiment: sEH activity assay (Cayman Chemicals); assay type: biochemical; details: for inhibition at 33 µM: 33 μM compound, compared to vehicle (0%); for Remaining sEH Activity (33 μM): Table 3
T3 construct: purchased Cayman Chemicals
T3 sequence (P34913 1-555): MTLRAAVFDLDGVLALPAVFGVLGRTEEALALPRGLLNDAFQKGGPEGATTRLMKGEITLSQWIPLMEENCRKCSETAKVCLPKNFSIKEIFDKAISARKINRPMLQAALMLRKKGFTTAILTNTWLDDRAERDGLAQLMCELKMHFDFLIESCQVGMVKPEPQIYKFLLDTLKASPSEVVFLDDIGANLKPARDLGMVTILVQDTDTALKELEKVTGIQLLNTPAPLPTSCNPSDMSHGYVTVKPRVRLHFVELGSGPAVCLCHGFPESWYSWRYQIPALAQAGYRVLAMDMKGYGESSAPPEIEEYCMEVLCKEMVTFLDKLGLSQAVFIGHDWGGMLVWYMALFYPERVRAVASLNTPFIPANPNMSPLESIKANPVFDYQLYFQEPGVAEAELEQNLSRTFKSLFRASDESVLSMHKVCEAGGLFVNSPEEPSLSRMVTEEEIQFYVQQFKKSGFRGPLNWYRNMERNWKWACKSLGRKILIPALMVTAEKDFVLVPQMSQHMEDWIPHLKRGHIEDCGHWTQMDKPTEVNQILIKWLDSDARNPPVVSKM
Method: Concentration response curves were plotted for VU534 for the enzymes fatty acid amide hydrolase (FAAH) and soluble epoxide hydrolase (sEH).
The fluorescence interference assay was performed using the same method as the HTS assay, but with BODIPY-FL C5 (Thermo Fisher Scientific) used in place of PED-A1. sEH and FAAH activity assays were performed according to the manufacturer's specifications (Cayman Chemicals).

[4] = Table 2, maximal induced activity for recombinant NAPE-PLD compared to basal (100%), read-out: Emax (%)
[5] = Table 2, rNAPE-PLD activity assay, read-out: EC50
[6] = Table 3, read-out: In vitro EC50
[7] = Table 3, read-out: In vitro Emax (100% activity is baseline activity of vehicle only)

SMILES	bAC175 [1]	AC50 [1]	Max % bA (%) [1]	Emax [1, 4]	EC50 [1, 5]	EC50 [1, 6]	Emax [1, 7]	Emax (95% Cl) [1]	Emax, Nape-pld activity in RAW264.7 cells ([2]; FIG. 17A, PED-A1)	10 μM Mϕ % NAPE-PLD activity [2]	In-cell NAPE-PLD activity in RAW 264.7 (10 μM) with PED-A1 or flame-NAPE as substrate [2]	effect on NAPE-PLD activity in RAW264.7 cells ([2]; graded concentrations (FIG. 17A))	inhibition at 33 µM [3]	Remaining sEH Activity (33 μM) [3]	inhibition of sEH activity ([3]; graded concentrations)
Cc1cc(C)c2sc(NC(=O)C3CCN(S(=O)(=O)c4ccc(F)cc4)CC3)nc2c1 [VU534, N-(5,7-Dimethylbenzo[d]thiazol-2-yl)-1-((4-fluorophenyl)sulfonyl)piperidine-4-carboxamide]	750 nM	0.27 µM	195%	205%	0.28 µM	0.29 µM	209%	2.1 (2.0-2.2) fold	1.6 fold	140%	139%	significantly increased NAPE-PLD activity	75%	27%	inhibition of sEH; also recorded: modest inhibition; also recorded: inhibits
Cc1cccc2sc(NC(=O)C3CCN(S(=O)(=O)c4ccc(F)c(Cl)c4)CC3)nc12 [VU209]	–	–	–	–	–	4.7 µM	179%	1.9 (1.8-2.1) fold	–	–	136%	–	–	62%	–
Cc1ccc(S(=O)(=O)N2CCC(C(=O)Nc3nc4c(C)cc(C)cc4s3)CC2)cc1 [VU575]	1690 nM	0.95 µM	210%	220%	0.19 µM	0.19 µM	215%	2.4 (2.3-2.5) fold	–	105%	107%	–	45%	55%	–
Cn1cc(S(=O)(=O)N2CCC(C(=O)Nc3nc4ccccc4s3)CC2)cn1 [VU227]	–	–	–	–	–	~2.9 µM	~150%	1.7 (1.6-1.9) fold	–	–	102%	–	–	63%	–
